In PMC10689823, “Discovery of a Drug-like, Natural Product-Inspired DCAF11 Ligand Chemotype” (Nature Communications, 2023):

Molecular target: BRD4S-TagBFP reporter (Homo sapiens, UniProt O60885)
Assay: FACS-based CRISPR/Cas9 BRD4 protein stability screen
Description: The virus containing supernatant was cleared of cellular debris by filtration through a 0.45-µm PES filter and used to transduce KBM7 BRD4-BFP reporter cells harboring a doxycycline inducible Cas9 allele at a multiplicity of infection (MOI) of 0.05 and 1,000-fold library representation. Library-transduced cells were selected with G418 (1 mg ml^−1, Gibco) for 14 days, expanded and Cas9 expression was induced with DOX (0.4 µg ml^−1, PanReac AppliChem).
Cells were washed with and stored in FACS buffer (PBS containing 5% FBS and 1 mM EDTA) at 4 °C overnight. The next day, cells were strained trough a 35 µm nylon mesh and sorted on a BD FACSAria™ Fusion (BD Biosciences) using a 85 µm nozzle. Aggregates, dead (ZombieNIR positive), Cas9-negative (GFP) and sgRNA library-negative (Thy1.1-APC) cells were excluded, and the remaining cells were sorted based on their BRD4-BFP and mCherry levels into BRD4^HIGH (10% of cells), BRD4^MID (30%) and BRD4^LOW (10%) fractions. For each sample, cells corresponding to at least 2,000-fold library representation were sorted per replicate.
Next-generation sequencing (NGS) libraries of sorted cell fractions were prepared as previously described[25]. In brief, genomic DNA was isolated by cell lysis (10 mM Tris-HCl, 150 mM NaCl, 10 mM EDTA, 0.1% SDS), proteinase K treatment (New England Biolabs) and DNAse-free RNAse digest (Thermo Fisher Scientific), followed by two rounds of phenol extraction and 2-propanol precipitation. Isolated genomic DNA was subjected to several freeze–thaw cycles before nested polymerase chain reaction (PCR) amplification of the sgRNA cassette.
Barcoded NGS libraries for each sorted population were generated using a two-step PCR protocol using AmpliTaq Gold (Invitrogen). The resulting PCR products were purified using Mag-Bind® TotalPure NGS beads (Omega Bio-tek) and amplified in a second PCR introducing the standard Illumina adapters. The final Illumina libraries were bead-purified, pooled and sequenced on a HiSeq 3500 platform (Illumina).
Screen analysis was performed as previously described[25]. Briefly, sequencing reads were quantified using the crispr-process-nf Nextflow workflow, available at https://github.com/ZuberLab/crispr-process-nf/tree/566f6d46bbcc2a3f49f51bbc96b9820f408ec4a3. For statistical analysis, we used the crispr-mageck-nf Nextflow workflow, available at https://github.com/ZuberLab/crispr-mageck-nf/tree/c75a90f670698bfa78bfd8be786d6e5d6d4fc455. To calculate gene-level enrichment, the sorted populations (BRD4^HIGH or BRD4^LOW) were compared to the BRD4^MID populations in MAGeCK (0.5.9)[46], using median normalized read counts.

## Cc1sc2c(c1C)C(c1ccc(Cl)cc1)=N[C@@H](CC(=O)NCCOCCOCCOCCOCCNC(=O)COc1c(Br)cc(/C=C3\C(=O)Nc4ccc(Br)cc43)cc1Br)c1nnc(C)n1-2 [Compound 9]
Gene FBXL18, Mageck_Gene level
  Low_lfc: 0.05
  Low_logP: 0.07
Gene FBXL19, Mageck_Gene level
  High_lfc: -0.41
  High_logP: 0
  Low_lfc: 0.11
  Low_logP: 0.48
Gene FBXL20, Mageck_Gene level
  High_lfc: -0.06
  High_logP: 0.09
  Low_lfc: -0.11
  Low_logP: 0.04
Gene FBXL21, Mageck_Gene level
  High_lfc: -0.29
  High_logP: 0.09
  Low_lfc: -0.29
  Low_logP: 0.01
Gene FBXL22, Mageck_Gene level
  High_lfc: 0.14
  High_logP: 0.24
  Low_lfc: 0.36
  Low_logP: 0.63
Gene FBXO2, Mageck_Gene level
  High_lfc: -0.09
  High_logP: 0.03
  Low_lfc: 0.42
  Low_logP: 1.6
Gene FBXO10, Mageck_Gene level
  High_lfc: 0.22
  High_logP: 0.52
  Low_lfc: -0.18
  Low_logP: 0.08
Gene FBXO11, Mageck_Gene level
  High_lfc: -0.38
  High_logP: 0.01
  Low_lfc: -0.03
  Low_logP: 0.19
Gene FBXO15, Mageck_Gene level
  High_lfc: -0.34
  High_logP: 0.01
  Low_lfc: -0.22
  Low_logP: 0.07
Gene FBXO16, Mageck_Gene level
  High_lfc: -0.28
  High_logP: 0.17
  Low_lfc: -0.34
  Low_logP: 0.13
Gene FBXO17, Mageck_Gene level
  High_lfc: 0.05
  High_logP: 0.04
  Low_lfc: -0.01
  Low_logP: 0.24
Gene FBXO18, Mageck_Gene level
  High_lfc: 0.01
  High_logP: 0.35
  Low_lfc: -0.24
  Low_logP: 0.06
Gene FBXO21, Mageck_Gene level
  High_lfc: -0.09
  High_logP: 0.15
  Low_lfc: 0.26
  Low_logP: 0.57
Gene FBXO22, Mageck_Gene level
  High_lfc: 0.33
  High_logP: 0.56
  Low_lfc: 0.08
  Low_logP: 0.24
Gene FBXO24, Mageck_Gene level
  High_lfc: 0.01
  High_logP: 0.17
  Low_lfc: 0.28
  Low_logP: 0.95
Gene FBXO25, Mageck_Gene level
  High_lfc: -0.09
  High_logP: 0.13
  Low_lfc: -0.06
  Low_logP: 1.23
Gene FBXO27, Mageck_Gene level
  High_lfc: 0.07
  High_logP: 0.26
  Low_lfc: 0.17
  Low_logP: 0.61
Gene FBXO28, Mageck_Gene level
  High_lfc: 0.25
  High_logP: 0.91
  Low_lfc: -0.03
  Low_logP: 0.09
Gene FBXO30, Mageck_Gene level
  High_lfc: -0.15
  High_logP: 0.06
  Low_lfc: 0.12
  Low_logP: 0.2
Gene FBXO31, Mageck_Gene level
  High_lfc: 0.02
  High_logP: 0.11
  Low_lfc: 0.28
  Low_logP: 0.85
Gene FBXO32, Mageck_Gene level
  High_lfc: 0.06
  High_logP: 0.14
  Low_lfc: 0.27
  Low_logP: 0.47
Gene FBXO33, Mageck_Gene level
  High_lfc: -0.49
  High_logP: 0
  Low_lfc: 0.19
  Low_logP: 0.87
Gene FBXO34, Mageck_Gene level
  High_lfc: 0.22
  High_logP: 0.61
  Low_lfc: 0.1
  Low_logP: 0.25
Gene FBXO36, Mageck_Gene level
  High_lfc: -0.13
  High_logP: 0.23
  Low_lfc: -0.41
  Low_logP: 0.06
Gene FBXO38, Mageck_Gene level
  High_lfc: -0.17
  High_logP: 0.01
  Low_lfc: 0.33
  Low_logP: 0.72
Gene FBXO39, Mageck_Gene level
  High_lfc: 0
  High_logP: 0.18
  Low_lfc: 0.15
  Low_logP: 0.56
KBM7 BRD4-BFP reporter cells, 9 0.5 µM, 10 1 µM, dBET6 10 nM, 6 hours
  CRL substrate receptor scoring as top hit (gene required for BRD4 degradation): DCAF11
Gene FBXO3
  High_lfc: 0.05
  High_logP: 0.25
  Low_lfc: -0.2
  Low_logP: 0.19
Gene FBXO4
  High_lfc: 0.12
  High_logP: 0.38
  Low_lfc: -0.12
  Low_logP: 0.07
Gene FBXO5
  High_lfc: -0.26
  High_logP: 0.37
  Low_lfc: -0.71
  Low_logP: 0.02
Gene FBXO6
  High_lfc: -0.04
  High_logP: 0.23
  Low_lfc: -0.19
  Low_logP: 0.36
Gene FBXO7
  High_lfc: 0.07
  High_logP: 0.57
  Low_lfc: 0.01
  Low_logP: 0.76
Gene FBXO8
  High_lfc: 0.03
  High_logP: 0.11
  Low_lfc: -0.03
  Low_logP: 0.11
Gene FBXO9
  High_lfc: -0.02
  High_logP: 0.04
  Low_lfc: -0.02
  Low_logP: 0.52
Gene FBXO40
  High_lfc: -0.13
  High_logP: 0.02
  Low_lfc: -0.27
  Low_logP: 0.13
Gene FBXO41
  High_lfc: 0.17
  High_logP: 0.26
  Low_lfc: -0.12
  Low_logP: 0.01
Gene FBXO42
  High_lfc: 0.01
  High_logP: 0.18
  Low_lfc: 0.28
  Low_logP: 1.35
Gene FBXO43
  High_lfc: 0.05
  High_logP: 0.29
  Low_lfc: 0.06
  Low_logP: 0.07
Gene FBXO44
  High_lfc: 0
  High_logP: 0.11
  Low_lfc: 0.17
  Low_logP: 0.24
Gene FBXO45
  High_lfc: 0.31
  High_logP: 0.64
  Low_lfc: -0.13
  Low_logP: 0.16
Gene FBXO46
  High_lfc: 0.28
  High_logP: 0.48
  Low_lfc: 0.32
  Low_logP: 1.6
Gene FBXO47
  High_lfc: -0.53
  High_logP: 0.06
  Low_lfc: -0.35
  Low_logP: 0.03
Gene FBXO48
  High_lfc: -0.41
  High_logP: 0.11
  Low_lfc: 0
  Low_logP: 0.25
Gene FBXW2
  High_lfc: -0.12
  High_logP: 0.08
  Low_lfc: -0.53
  Low_logP: 0.05
Gene FBXW4
  High_lfc: -0.31
  High_logP: 0.02
  Low_lfc: 0.22
  Low_logP: 0.62
Gene FBXW5
  High_lfc: -0.14
  High_logP: 0.16
  Low_lfc: 0.15
  Low_logP: 0.39
Gene FBXW7
  High_lfc: 0.41
  High_logP: 1.48
  Low_lfc: -0.31
  Low_logP: 0.05
Gene FBXW8
  High_lfc: -0.18
  High_logP: 0.19
  Low_lfc: 0.19
  Low_logP: 0.52
Gene FBXW9
  High_logP: 0
Gene FBXW10
  High_lfc: -0.05
  High_logP: 0.14
  Low_lfc: -0.09
  Low_logP: 0.05
Gene FBXW11
  High_lfc: 0.12
  High_logP: 0.29
  Low_lfc: -0.29
  Low_logP: 0.06
Gene FBXW12
  High_lfc: -0.19
  High_logP: 0.02
  Low_lfc: -0.05
  Low_logP: 0.24
Gene FEM1A
  High_logP: 0.43
